One test deals with T1, IRAK1 (Homo sapiens, UniProt P51617).
T1 construct: purchased Reaction Biology (RBC HotSpot)
Put plainly: RBC HotSpot Kinase Assay, IRAK1. The class given is biochemical. To be noted: isolated kinase enzyme, 33P-ATP, P81 filter-binding. A digest of the protocol:
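Radiometric HotSpot assay of catalytic activity with isolated recombinant kinase, possibly truncated or kinase domain only. Buffer: 20 mM Hepes pH 7.5, 10 mM MgCl2, 1 mM EGTA, 0.01% Brij35, 0.02 mg/ml BSA, 0.1 mM Na3VO4, 2 mM DTT, 1% DMSO, with cofactors specific to each kinase.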

Another test deals with T2, IRAK4 (Homo sapiens, UniProt Q9NWZ3).
T2 sequence (Q9NWZ3 1-460): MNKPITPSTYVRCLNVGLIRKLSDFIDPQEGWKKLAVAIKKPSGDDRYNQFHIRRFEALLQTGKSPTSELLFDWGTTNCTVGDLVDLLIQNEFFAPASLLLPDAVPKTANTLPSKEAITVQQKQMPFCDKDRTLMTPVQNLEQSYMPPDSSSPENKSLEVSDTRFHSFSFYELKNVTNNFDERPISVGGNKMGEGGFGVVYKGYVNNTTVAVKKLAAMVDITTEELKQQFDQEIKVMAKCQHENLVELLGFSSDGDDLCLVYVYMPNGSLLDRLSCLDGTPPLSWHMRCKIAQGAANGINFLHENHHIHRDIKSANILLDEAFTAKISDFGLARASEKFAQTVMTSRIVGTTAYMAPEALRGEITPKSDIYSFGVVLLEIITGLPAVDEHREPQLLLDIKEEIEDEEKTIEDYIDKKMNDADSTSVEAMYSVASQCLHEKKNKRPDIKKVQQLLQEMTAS
Nature of the test: Reaction Biology NanoBRET target engagement assay in HEK-293 cells, IRAK4. The class given is cell-based. The settings on record: live HEK-293 cells transfected with Kinase-NanoLuc fusion, 1 hour. The source says:
The NanoBRET assay measures kinase engagement in real time in the context of the intact cell. Unlike the previously described biochemical kinase assay methodology in Example 33, the NanoBRET assay measures the binding and activity characteristics under equilibrium conditions using full-length kinases in the presence of cellular concentrations of ATP in live, uncompromised cells. As such, the assay provides a more relevant assessment of kinase potency and selectivity that would be expected to be observed in the native cellular environment, where potency is often considerably lower than that observed in the isolated biochemical assays (Vasta, J. D. et al., (2018) Cell Chem. Biol. 25, 206-214). The assay uses a Kinase-NanoLuc® fusion vector expressing a kinase protein to which a luciferase tag has been added, a cell-permeant fluorescent NanoBRET™ tracer, a NanoLuc® substrate, and an extracellular NanoLuc® inhibitor. Upon expression of the luciferase-tagged kinase, cells will produce a strong BRET signal only in the presence of the NanoBRET™ tracer. The extracellular NanoLuc® inhibitor ensures that the BRET signal observed emanates only from live cells. Because the BRET signal has tight distance constraints, addition of the test compound will decrease the BRET signal if the compound competes with the NanoBRET™ tracer for binding to the kinase domain. Under the appropriate tracer conditions established by the manufacturer, quantitative intracellular affinity and relative potency can then be determined using Mass Action model equations.
HEK-293 cells were purchased from ATCC. FuGENEHD Transfection Reagent, Kinase-NanoLucfusion plasmids, Transfection Carrier DNA, NanoBRETTracers and dilution buffer, NanoBRETNano-Glo Substrate, Extracellular NanoLucInhibitor were obtained from Promega.
Assays were conducted following Promega assay protocol with some modifications. HEK-293 Cells were transiently transfected with Kinase-NanoLucFusion Vector DNA by FuGENEHD Transfection Reagent. Testing compounds were delivered into 384 well assay plate by Echo 550 (LabcyteInc, Sunnyvale, CA). Transfected cells were harvested and mixed with NanoBRETTracer Reagent and dispensed into 384 well plates and incubated at 37° C. in 5% C02 cell culture incubator for 1 hour. The NanoBRETNano-Glo Substrate plus Extracellular NanoLucInhibitor Solution were added into the wells of the assay plate and incubated for 2-3 minutes at room temperature. The donor emission wavelength (460 nm) and acceptor emission wavelength (600 nm) were measured in the EnVisionplate reader. The BRET Ratios were calculated. BRET Ratio=[(Acceptor sample÷Donor sample)−(Acceptor no-tracer control÷Donor no-tracer control)]. The IC50 values of compounds were calculated with Prism GraphPad program.
• 1). Cultivate HEK-293 cells (70-80% confluence) appropriately prior to assay. Trypsinize and collect HEK-293 cells. • 2). Prepare lipid: DNA complexes as follows: • a. Prepare a 10 μg/ml solution of DNA in Opti-MEM without serum that consists of the following ratios of carrier DNA and DNA encoding NanoLuc® fusion. 9.0 μg/mL of Transfection Carrier DNA, 1.0 μg/mL of NanoLuc fusion vector DNA and 1 mL of Opti-MEM without phenol red. Mix thoroughly. • b. Add 30 μl of FuGENE HD Transfection Reagent into each milliliter of DNA mixture to form lipid: DNA complex. • c. Mix by inversion 10 times. • d. Incubate at ambient temperature for 20 minutes to allow complexes to form. • 3). In a sterile, conical tube, mix 1 part of lipid:DNA complex with 20 parts of HEK-293 cells in suspension. Mix gently by inversion 5 times. • 4). Dispense cells+lipid:DNA complex into a sterile tissue culture dish and incubate for 22-24 hours.
Each test compound is delivered from the compound source plate to the wells of 384-well white NBS plate by Echo 550.
3. Preparation of Cells with NanoBRET™ Tracer Reagent • 1). […]

The structures appear in SMILES notation.

T1 sequence (P51617 whole entry): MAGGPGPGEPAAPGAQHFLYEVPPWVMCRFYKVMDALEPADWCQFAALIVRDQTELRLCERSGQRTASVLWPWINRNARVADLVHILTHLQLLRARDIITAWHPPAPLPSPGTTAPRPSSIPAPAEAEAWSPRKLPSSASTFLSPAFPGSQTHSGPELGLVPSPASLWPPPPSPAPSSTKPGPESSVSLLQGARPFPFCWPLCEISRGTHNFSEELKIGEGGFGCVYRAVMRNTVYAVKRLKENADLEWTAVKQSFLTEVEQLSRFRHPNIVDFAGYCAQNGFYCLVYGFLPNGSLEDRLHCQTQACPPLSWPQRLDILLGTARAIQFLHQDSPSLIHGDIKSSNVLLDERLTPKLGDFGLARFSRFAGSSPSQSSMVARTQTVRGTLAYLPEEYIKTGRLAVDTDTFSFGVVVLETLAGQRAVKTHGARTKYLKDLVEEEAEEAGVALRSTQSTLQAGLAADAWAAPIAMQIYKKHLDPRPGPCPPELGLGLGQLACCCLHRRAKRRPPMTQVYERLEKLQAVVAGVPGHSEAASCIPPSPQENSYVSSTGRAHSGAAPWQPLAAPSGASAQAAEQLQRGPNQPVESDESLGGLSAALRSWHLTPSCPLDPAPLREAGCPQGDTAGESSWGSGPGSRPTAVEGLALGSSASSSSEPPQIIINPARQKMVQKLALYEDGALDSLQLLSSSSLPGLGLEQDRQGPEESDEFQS

What is called IC50 is the midpoint of a concentration-inhibition curve. Regarding `CC(O)(c1ccc2ncc(-c3ccnc(N[C@@H]4CCCNC4)n3)n2c1)C(F)(F)F` (single isomer, unassigned) [Compound 22a], the IC50 on IRAK1 is 19 nM; on IRAK4, below 0.5 nM.

With `CC(O)(c1ccc2ncc(-c3ccnc(N[C@@H]4CCCNC4)n3)n2c1)C(F)(F)F` (single isomer, unassigned) [Compound 23a], the IC50 was 3 nM on IRAK1 and below 0.5 nM at IRAK4.

Turning to `CC(O)(c1ccc2ncc(-c3ccnc(N[C@H]4CNCC[C@@H]4F)n3)n2c1)C(F)(F)F` (single isomer, unassigned) [Compound 25a], the IC50 on IRAK1 stood at 17 nM; on IRAK4, 2 nM.

In the case of `CC(O)(c1ccc2ncc(-c3cncc(N[C@@H]4CCCNC4)n3)n2c1)C(F)(F)F` (single isomer, unassigned) [Compound 28a], the results for the IC50 on IRAK1 and against IRAK4 were 33 nM and below 0.5 nM, respectively.

Regarding `CC(O)(c1ccc2ncc(-c3cncc(N[C@H]4CNCC[C@@H]4F)n3)n2c1)C(F)(F)F` (single isomer, unassigned) [Compound 31a], the values for the IC50 at IRAK1 and against IRAK4 were 17 nM and below 0.5 nM, respectively.

As to `COc1cc2ncc(-c3nc(N[C@H]4CNCC[C@@H]4F)ncc3F)n2nc1C1CC1` [Compound 1a, 4-(6-cyclopropyl-7-methoxyimidazo[1,2-b]pyridazin-3-yl)-5-fluoro-N-((3S,4S)-4-fluoropiperidin-3-yl)pyrimidin-2-amine], the IC50 was 1 nM on IRAK1 and below 0.5 nM at IRAK4.

As for `FC(F)COc1cc2ncc(-c3ccnc(N[C@H]4CNCC[C@@H]4F)n3)n2nc1C1CC1` [Compound 4a, 4-(6-cyclopropyl-7-(2,2-difluoroethoxy)imidazo[1,2-b]pyridazin-3-yl)-N-((3 S,4S)-4-fluoropiperidin-3-yl)pyrimidin-2-amine], the values for the IC50 on IRAK1 and against IRAK4 were 31 nM and 0.8 nM, respectively.

With `F[C@H]1CCNC[C@@H]1Nc1nccc(-c2cnc3cc(OC4CC4)c(C4CC4)nn23)n1` [Compound 12a, 4-(7-cyclopropoxy-6-cyclopropylimidazo[1,2-b]pyridazin-3-yl)-N-((3S,4S)-4-fluoropiperidin-3-yl)pyrimidin-2-amine], the IC50 at IRAK1 is 18 nM; at IRAK4, below 0.5 nM.

Consider `COc1cc2ncc(-c3nc(N[C@H]4CNCC[C@@H]4F)ncc3F)n2nc1C(C)(C)O` [Compound 45a, 2-(3-(5-fluoro-2-(((3S,4S)-4-fluoropiperidin-3-yl)amino)pyrimidin-4-yl)-7-methoxyimidazo[1,2-b]pyridazin-6-yl)propan-2-ol], for which the values for the IC50 at IRAK1 and against IRAK4 were 18 nM and 3 nM, respectively.

For `CC(C)(O)c1ccc2ncc(-c3nc(N[C@H]4CNCC[C@@H]4F)ncc3F)n2c1` [Compound 46a, 2-(3-(5-fluoro-2-(((3S,4S)-4-fluoropiperidin-3-yl)amino)pyrimidin-4-yl)imidazo[1,2-a]pyridin-6-yl)propan-2-ol], the IC50 at IRAK1 was 6 nM; at IRAK4, 4 nM.

In the case of `CC(C)(O)c1ccc2ncc(-c3nc(N[C@@H]4CCCNC4)ncc3F)n2c1` [Compound 48a, (R)-2-(3-(5-fluoro-2-(piperidin-3-ylamino)pyrimidin-4-yl)imidazo[1,2-a]pyridin-6-yl)propan-2-ol], the IC50 on IRAK1 is 10 nM; against IRAK4 it was 5 nM.

For `COc1cc2ncc(-c3nc(N[C@H]4CNCC[C@@H]4F)ncc3F)n2nc1C1CC(F)(F)C1` [Compound 49a, 4-(6-(3,3-difluorocyclobutyl)-7-methoxyimidazo[1,2-b]pyridazin-3-yl)-5-fluoro-N-((3S,4S)-4-fluoropiperidin-3-yl)pyrimidin-2-amine], the IC50 at IRAK1 was 2 nM; on IRAK4, below 0.5 nM.

For `COc1cc2ncc(-c3nc(N[C@@H]4CCCNC4)ncc3F)n2nc1C1CC2(CCC2)C1` [Compound 59a, (R)-5-fluoro-4-(7-methoxy-6-(spiro[3.3]heptan-2-yl)imidazo[1,2-b]pyridazin-3-yl)-N-(piperidin-3-yl)pyrimidin-2-amine], the IC50 on IRAK1 worked out at 0.7 nM.

At IRAK1, `COc1cc2ncc(-c3nc(N[C@H]4CNCC[C@@H]4F)ncc3F)n2nc1C1CC2(CCC2)C1` [Compound 60a, 5-fluoro-N-((3S,4S)-4-fluoropiperidin-3-yl)-4-(7-methoxy-6-(spiro[3.3]heptan-2-yl)imidazo[1,2-b]pyridazin-3-yl)pyrimidin-2-amine] had an IC50 of 4 nM.

On to `COc1cc2ncc(-c3ccnc(N[C@H]4CNCC[C@@H]4F)n3)n2nc1C1CCC1` [Compound 79a, 4-(6-cyclobutyl-7-methoxyimidazo[1,2-b]pyridazin-3-yl)-N-((3S,4S)-4-fluoropiperidin-3-yl)pyrimidin-2-amine], for which the IC50 is 33 nM on IRAK1 and below 0.5 nM against IRAK4.

`COc1cc2ncc(-c3nc(N[C@H]4CNCC[C@@H]4F)ncc3F)n2nc1C1COC1` [Compound 92a, 5-fluoro-N-((3S,4S)-4-fluoropiperidin-3-yl)-4-(7-methoxy-6-(oxetan-3-yl)imidazo[1,2-b]pyridazin-3-yl)pyrimidin-2-amine]: the IC50 is 4 nM on IRAK1 and below 0.5 nM against IRAK4.

With `CC(C)(O)c1cn2c(-c3nc(N[C@H]4CNCC[C@@H]4F)ncc3F)cnc2cn1` [Compound 100a, 2-(3-(5-fluoro-2-(((3S,4S)-4-fluoropiperidin-3-yl)amino)pyrimidin-4-yl)imidazo[1,2-a]pyrazin-6-yl)propan-2-ol], the IC50 on IRAK1 stood at 24 nM; against IRAK4 it was 8 nM.

`COc1cc2ncc(-c3nc(N[C@H]4CNC[C@@H]4F)ncc3F)n2nc1N1CCCS1(=O)=O` [Compound 111a, 2-(3-(5-fluoro-2-(((3S,4S)-4-fluoropyrrolidin-3-yl)amino)pyrimidin-4-yl)-7-methoxyimidazo[1,2-b]pyridazin-6-yl)isothiazolidine 1,1-dioxide]: the IC50 at IRAK1 turned out to be 40 nM; at IRAK4, 34 nM.

Take `COc1cc2ncc(-c3nc(N[C@H]4CNCC[C@@H]4F)ncc3F)n2nc1N1CCCS1(=O)=O` [Compound 112a, 2-(3-(5-fluoro-2-(((3S,4S)-4-fluoropiperidin-3-yl)amino)pyrimidin-4-yl)-7-methoxyimidazo[1,2-b]pyridazin-6-yl)isothiazolidine 1,1-dioxide]: the figures for the IC50 on IRAK1 and against IRAK4 were 19 nM and below 0.5 nM, respectively.

Source of the values: patent US20260226048A1, “MULTI-CYCLIC IRAK AND FLT3 INHIBITING COMPOUNDS AND USES THEREOF” (CHILDREN'S HOSPITAL MEDICAL CENTER, priority 2023, published 2026).
